{"source": "paper PMC6039436", "about": "“Radiobrominated benzimidazole-quinoline derivatives as Platelet-derived growth factor receptor beta (PDGFRβ) imaging probes” (Scientific Reports, 2018)", "key": {"[1]": {"target": "T1, PDGFRβ (BxPC3-luc cells) (Homo sapiens, UniProt P09619)", "T1 construct": "host or cells: BxPC3-luc cells", "T1 sequence (P09619 33-1106)": "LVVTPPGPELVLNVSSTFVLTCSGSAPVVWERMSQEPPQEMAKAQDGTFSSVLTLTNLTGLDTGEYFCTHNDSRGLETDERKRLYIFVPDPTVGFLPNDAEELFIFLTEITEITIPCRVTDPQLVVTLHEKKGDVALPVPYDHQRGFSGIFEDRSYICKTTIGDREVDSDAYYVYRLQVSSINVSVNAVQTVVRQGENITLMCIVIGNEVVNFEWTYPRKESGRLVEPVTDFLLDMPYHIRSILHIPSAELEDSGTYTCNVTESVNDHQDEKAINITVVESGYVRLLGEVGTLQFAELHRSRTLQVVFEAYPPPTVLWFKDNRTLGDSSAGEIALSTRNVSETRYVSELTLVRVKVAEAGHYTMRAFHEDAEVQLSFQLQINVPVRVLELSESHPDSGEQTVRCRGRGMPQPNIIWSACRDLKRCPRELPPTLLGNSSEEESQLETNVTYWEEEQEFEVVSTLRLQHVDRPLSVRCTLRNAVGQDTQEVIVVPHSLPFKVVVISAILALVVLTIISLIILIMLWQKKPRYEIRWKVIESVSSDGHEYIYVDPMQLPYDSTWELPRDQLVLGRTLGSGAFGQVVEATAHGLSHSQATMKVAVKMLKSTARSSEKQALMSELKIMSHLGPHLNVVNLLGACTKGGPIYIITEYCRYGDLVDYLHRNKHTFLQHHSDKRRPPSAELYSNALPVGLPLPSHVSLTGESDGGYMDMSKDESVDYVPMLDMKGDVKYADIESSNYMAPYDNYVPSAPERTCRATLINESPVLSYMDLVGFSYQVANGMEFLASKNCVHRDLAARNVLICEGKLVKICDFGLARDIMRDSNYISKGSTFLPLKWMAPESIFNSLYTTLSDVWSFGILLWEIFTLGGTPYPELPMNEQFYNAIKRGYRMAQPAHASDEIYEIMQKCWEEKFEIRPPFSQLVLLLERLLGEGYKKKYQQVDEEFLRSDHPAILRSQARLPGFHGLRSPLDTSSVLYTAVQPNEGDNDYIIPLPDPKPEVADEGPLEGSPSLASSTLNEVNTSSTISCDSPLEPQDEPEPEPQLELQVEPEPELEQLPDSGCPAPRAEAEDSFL", "assay": "Competitive binding assay of [^125I]4 with BxPC3-luc cells", "settings": "displacement of [^125I]4, BxPC3-luc cells, 37 °C, 4 h", "protocol": "We investigated the competitive binding of [^125I]4 to BxPC3-luc cells with PDGFRβ ligand, 1, 2, and 3.\nBxPC3-luc cells in medium containing 10% FBS and antibiotics were seeded on 24-well plates (50,000 cells/wells) and incubated for 24 h in a 5% CO2 incubator at 37 °C. Nine concentrations of displacing nonradiolabeled ligands (1, 2 and 3) (ranging from 1 pM to 1 mM) and [^125I]4 in medium without FBS were incubated at 37 °C for 4 h. After washing the cells twice using 250 µL of ice-cold PBS, the unbound radioligand was removed. The cells were dissolved using 250 µL of 1 M NaOH and wells were washed with 250 µL of 1 M NaOH. The bound radioactivity was determined using a gamma counter.\nAll data were statisticaly analyzed using GraphPad 5.0 software (La Jolla, CA, USA) and expressed as mean ± standard deviation (SD). Significance for in vitro blocking experiments was determined by a one-way analysis of variance (ANOVA) followed by Dunnett’s post hoc test compared to the control group. Significance in cell viability assays was determined by ANOVA followed by Tukey’s post hoc test. IC50 values for the binding assay were calculated by nonlinear regression. Significant differences in biodistribution experiments between [^77Br]2 and [^77Br]3 groups were determined using unpaired Student’s t-test. Significance for in vivo blocking studies between control and blocking groups were determined by unpaired Student’s t-test. Results were considered statistically significant at p < 0.05."}, "[2]": {"assay": "Biodistribution in ddY mice", "format": "in vivo", "settings": "i.v. co-injection", "protocol": "In this study, to minimize both the number of mice consumed in the experiment and the potential for experimental errors, we co-injected radiobrominated and radioiodinated compounds into mice[30],[31]. High radioactivity in the liver, small intestine, and large intestine was observed.\n(§1) Mice were intravenously injected via the tail with 100 µL of saline solution of [^77Br]2 and [^125I]4 or [^77Br]3 and [^125I]5 (74 kBq, respectively), containing 10% ethanol and 1% tween-80. The ddY mice were sacrificed at 10 min, 1, 4, and 24 h postinjection. Meanwhile, tumor-bearing mice were sacrificed at 1 h postinjection.\n(§2) Tissues in mice were resected and weighed. The radioactivity of the tissues was counted by a gamma counter and counts were corrected for background radiation. The data were expressed as percent injection dose per gram tissue (%ID/g)."}, "[3]": {"test_system": "BxPC3-luc tumor", "assay": "Biodistribution in BxPC3-luc tumor-bearing mice", "format": "in vivo, BALB/c nu/nu mice", "settings": "i.v. co-injection, 1 h", "protocol": "We investigated the biodistribution of the radiotracers in BxPC3-luc tumor-bearing mice by co-injecting [^77Br]2 with [^125I]4 (Table 3), and [^77Br]3 with [^125I]5 (Table 4).\nAnimal experiments were conducted in strict accordance with the Guidelines for the Care and Use of Laboratory Animals of Kanazawa University. The animal experimental protocols used were approved by the Committee on Animal Experimentation of Kanazawa University (Permit Number: AP-163766). The animals were housed with free access to food and water at approximately 23 °C with a 12 h light/dark schedule. ddY mice (six-week-old, male, 27–30 g) and BALB/c nu/nu mice (four-week-old, female, 12–17 g) were purchased from Japan SLC Inc. (Hamamatsu, Japan). For preparing the tumor-bearing mice, BxPC3-luc cells (5 × 10^6 cells) were subcutaneously injected into the left shoulder of BALB/c nu/nu mice. The tumor reached palpable size after two weeks of the inoculation.\nas §1, §2"}, "[4]": {"set-up": "method as in PMID 28838832", "settings": "radioiodinated compounds; cited from earlier work"}}, "note": "Marks after values point to notes of the source that are not given here."}
{"smiles": "COCCOc1ccc2c(c1)ncn2-c1ccc2cccc(N3CCC(N)CC3)c2n1", "note": "[Compound 1, 1-{2-[5-(2-methoxyethoxy)-1H-benzo[d]imidazol-1-yl]quinolin-8-yl}piperidin-4-amine, reference compound]", "values": [{"measurement": "IC50", "setting": "[1]", "value": "183 ± 8", "unit": "nM"}]}
{"smiles": "COCCOc1ccc2c(c1)ncn2-c1ccc2cccc(N3CCC(NC(=O)c4cccc(Br)c4)CC3)c2n1", "note": "[Compound 3, N-3-bromobenzoyl-1-{2-[5-(2-methoxyethoxy)-1H-benzo[d]imidazol-1-yl]quinolin-8-yl}-piperidin-4-amine]", "values": [{"measurement": "IC50", "setting": "[1]", "value": 1280, "unit": "nM"}]}
{"smiles": "COCCOc1ccc2c(c1)ncn2-c1ccc2cccc(N3CCC(NC(=O)c4cccc([125I])c4)CC3)c2n1", "note": "[[^125I]5, [^125I]N-3-iodobenzoyl-1-{2-[5-(2-methoxyethoxy)-1H-benzo[d]imidazol-1-yl]quinolin-8-yl}-piperidin-4-amine, reference compound]", "values": [{"measurement": "Radioactivity in Blood", "setting": "[2]; 10 min", "value": "0.94 (0.14)^** %injected dose/gram tissue"}, {"measurement": "Radioactivity in Bone", "setting": "[2]; 10 min", "value": "0.81 (0.11)^** %injected dose/gram tissue"}, {"measurement": "Radioactivity in Brain", "setting": "[2]; 10 min", "value": "0.19 (0.03)^** %injected dose/gram tissue"}, {"measurement": "Radioactivity in Heart", "setting": "[2]; 10 min", "value": "1.66 (0.23)^** %injected dose/gram tissue"}, {"measurement": "Radioactivity in Kidney", "setting": "[2]; 10 min", "value": "5.23 (0.65) %injected dose/gram tissue"}, {"measurement": "Radioactivity in Large intestine", "setting": "[2]; 10 min", "value": "0.75 (0.06)^* %injected dose/gram tissue"}, {"measurement": "Radioactivity in Liver", "setting": "[2]; 10 min", "value": "16.37 (2.05)^** %injected dose/gram tissue"}, {"measurement": "Radioactivity in Lung", "setting": "[2]; 10 min", "value": "1.80 (0.30)^* %injected dose/gram tissue"}, {"measurement": "Radioactivity in Muscle", "setting": "[2]; 10 min", "value": "0.97 (0.16)^* %injected dose/gram tissue"}, {"measurement": "Radioactivity in Pancreas", "setting": "[2]; 10 min", "value": "2.41 (0.20) %injected dose/gram tissue"}, {"measurement": "Radioactivity in Small intestine", "setting": "[2]; 10 min", "value": "9.59 (1.71)^** %injected dose/gram tissue"}, {"measurement": "Radioactivity in Spleen", "setting": "[2]; 10 min", "value": "1.72 (0.23) %injected dose/gram tissue"}, {"measurement": "Radioactivity in Stomach", "setting": "[2]; 10 min", "value": "2.09 (1.12) %injected dose /organ"}, {"measurement": "Radioactivity in Blood", "setting": "[2]; 1 h", "value": "0.26 (0.05)^** %injected dose/gram tissue"}, {"measurement": "Radioactivity in Bone", "setting": "[2]; 1 h", "value": "0.64 (0.31)^*** %injected dose/gram tissue"}, {"measurement": "Radioactivity in Brain", "setting": "[2]; 1 h", "value": "0.07 (0.03)^** %injected dose/gram tissue"}, {"measurement": "Radioactivity in Heart", "setting": "[2]; 1 h", "value": "0.39 (0.15)^** %injected dose/gram tissue"}, {"measurement": "Radioactivity in Kidney", "setting": "[2]; 1 h", "value": "1.57 (0.42) %injected dose/gram tissue"}, {"measurement": "Radioactivity in Large intestine", "setting": "[2]; 1 h", "value": "3.46 (2.18) %injected dose/gram tissue"}, {"measurement": "Radioactivity in Liver", "setting": "[2]; 1 h", "value": "3.32 (0.49)^** %injected dose/gram tissue"}, {"measurement": "Radioactivity in Lung", "setting": "[2]; 1 h", "value": "1.07 (0.08) %injected dose/gram tissue"}, {"measurement": "Radioactivity in Muscle", "setting": "[2]; 1 h", "value": "0.31 (0.13)^* %injected dose/gram tissue"}, {"measurement": "Radioactivity in Pancreas", "setting": "[2]; 1 h", "value": "0.86 (0.07)^** %injected dose/gram tissue"}, {"measurement": "Radioactivity in Small intestine", "setting": "[2]; 1 h", "value": "24.03 (1.45)^** %injected dose/gram tissue"}, {"measurement": "Radioactivity in Spleen", "setting": "[2]; 1 h", "value": "0.70 (0.16)^** %injected dose/gram tissue"}, {"measurement": "Radioactivity in Stomach", "setting": "[2]; 1 h", "value": "0.78 (0.19) %injected dose /organ"}, {"measurement": "Radioactivity in Blood", "setting": "[2]; 4 h", "value": "0.08 (0.01)^** %injected dose/gram tissue"}, {"measurement": "Radioactivity in Bone", "setting": "[2]; 4 h", "value": "0.40 (0.09)^** %injected dose/gram tissue"}, {"measurement": "Radioactivity in Brain", "setting": "[2]; 4 h", "value": "0.01 (0.00)^** %injected dose/gram tissue"}, {"measurement": "Radioactivity in Heart", "setting": "[2]; 4 h", "value": "0.20 (0.04)^** %injected dose/gram tissue"}, {"measurement": "Radioactivity in Kidney", "setting": "[2]; 4 h", "value": "0.36 (0.10)^* %injected dose/gram tissue"}, {"measurement": "Radioactivity in Large intestine", "setting": "[2]; 4 h", "value": "18.55 (1.85)^** %injected dose/gram tissue"}, {"measurement": "Radioactivity in Liver", "setting": "[2]; 4 h", "value": "1.21 (0.96) %injected dose/gram tissue"}, {"measurement": "Radioactivity in Lung", "setting": "[2]; 4 h", "value": "0.50 (0.19) %injected dose/gram tissue"}, {"measurement": "Radioactivity in Muscle", "setting": "[2]; 4 h", "value": "0.16 (0.08)^* %injected dose/gram tissue"}, {"measurement": "Radioactivity in Pancreas", "setting": "[2]; 4 h", "value": "0.27 (0.07)^** %injected dose/gram tissue"}, {"measurement": "Radioactivity in Small intestine", "setting": "[2]; 4 h", "value": "1.32 (0.66)^* %injected dose/gram tissue"}, {"measurement": "Radioactivity in Spleen", "setting": "[2]; 4 h", "value": "0.27 (0.09)^** %injected dose/gram tissue"}, {"measurement": "Radioactivity in Stomach", "setting": "[2]; 4 h", "value": "0.27 (0.10) %injected dose /organ"}, {"measurement": "Radioactivity in Blood", "setting": "[2]; 24 h", "value": "0.01 (0.00)^** %injected dose/gram tissue"}, {"measurement": "Radioactivity in Bone", "setting": "[2]; 24 h", "value": "0.06 (0.00)^** %injected dose/gram tissue"}, {"measurement": "Radioactivity in Brain", "setting": "[2]; 24 h", "value": "0.00 (0.00)^** %injected dose/gram tissue"}, {"measurement": "Radioactivity in Heart", "setting": "[2]; 24 h", "value": "0.02 (0.01)^** %injected dose/gram tissue"}, {"measurement": "Radioactivity in Kidney", "setting": "[2]; 24 h", "value": "0.05 (0.00)^** %injected dose/gram tissue"}, {"measurement": "Radioactivity in Large intestine", "setting": "[2]; 24 h", "value": "0.02 (0.00)^** %injected dose/gram tissue"}, {"measurement": "Radioactivity in Liver", "setting": "[2]; 24 h", "value": "0.06 (0.00)^** %injected dose/gram tissue"}, {"measurement": "Radioactivity in Lung", "setting": "[2]; 24 h", "value": "0.01 (0.00)^** %injected dose/gram tissue"}, {"measurement": "Radioactivity in Muscle", "setting": "[2]; 24 h", "value": "0.01 (0.00)^** %injected dose/gram tissue"}, {"measurement": "Radioactivity in Pancreas", "setting": "[2]; 24 h", "value": "0.02 (0.00)^** %injected dose/gram tissue"}, {"measurement": "Radioactivity in Small intestine", "setting": "[2]; 24 h", "value": "0.01 (0.00)^** %injected dose/gram tissue"}, {"measurement": "Radioactivity in Spleen", "setting": "[2]; 24 h", "value": "0.02 (0.00)^** %injected dose/gram tissue"}, {"measurement": "Radioactivity in Stomach", "setting": "[2]; 24 h", "value": "0.01 (0.00)^** %injected dose /organ"}, {"measurement": "Radioactivity in Blood", "setting": "[3]", "value": "0.23 (0.02)^** %injected dose/gram of tissue"}, {"measurement": "Radioactivity in Bone", "setting": "[3]", "value": "0.31 (0.04)^** %injected dose/gram of tissue"}, {"measurement": "Radioactivity in Brain", "setting": "[3]", "value": "0.05 (0.00)^** %injected dose/gram of tissue"}, {"measurement": "Radioactivity in BxPC3-luc tumor", "setting": "[3]", "value": "0.55 (0.09)^* %injected dose/gram of tissue"}, {"measurement": "Radioactivity in Heart", "setting": "[3]", "value": "0.42 (0.05)^** %injected dose/gram of tissue"}, {"measurement": "Radioactivity in Kidney", "setting": "[3]", "value": "1.13 (0.11)^** %injected dose/gram of tissue"}, {"measurement": "Radioactivity in Large intestine", "setting": "[3]", "value": "7.98 (3.79) %injected dose/gram of tissue"}, {"measurement": "Radioactivity in Liver", "setting": "[3]", "value": "4.83 (0.71)^** %injected dose/gram of tissue"}, {"measurement": "Radioactivity in Lung", "setting": "[3]", "value": "1.16 (0.23)^** %injected dose/gram of tissue"}, {"measurement": "Radioactivity in Muscle", "setting": "[3]", "value": "0.38 (0.06)^** %injected dose/gram of tissue"}, {"measurement": "Radioactivity in Pancreas", "setting": "[3]", "value": "1.25 (0.17)^** %injected dose/gram of tissue"}, {"measurement": "Radioactivity in Small intestine", "setting": "[3]", "value": "46.95 (2.88)^** %injected dose/gram of tissue"}, {"measurement": "Radioactivity in Spleen", "setting": "[3]", "value": "0.61 (0.06)^** %injected dose/gram of tissue"}, {"measurement": "Radioactivity in Stomach", "setting": "[3]", "value": "0.27 (0.06)^* %injected dose /organ"}, {"measurement": "n-octanol/phosphate buffer partition coefficient (log P)", "setting": "[4]", "value": "3.19 ± 0.17"}]}
